Experimental data taken from US12077503B2, “Substituted cyclic amides and their use as herbicides” (FMC CORPORATION, priority 2015, dated 2024).

How the values were obtained:
Assay in all cases: Test E preemergence
Type in all cases: in vivo
Details in all cases: scale 0 to 100
corn (Zea mays) = tested on: corn (Zea mays)
Outline: (§1)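 Greenhouse test: seeds in silt loam treated preemergence, or 1- to 4-leaf plants in peat-based potting medium treated postemergence, with surfactant-containing solvent formulation of compound; assessed 14 to 21 d later. Scores use a 0 to 100 scale where 100 means complete control.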

[1] = tested on: nutsedge, yellow (yellow nutsedge, Cyperus esculentus)
Outline: as §1

[2] = tested on: morningglory (Ipomoea coccinea)
Outline: as §1

[3] = tested on: Panicum, fall (fall Panicum, Panicum dichotomiflorum)
Outline: as §1

[4] = tested on: ryegrass, Italian (Italian ryegrass, Lolium multiflorum)
Outline: as §1

[5] = tested on: crabgrass, Brazil (Brazilian crabgrass, Digitaria horizontalis)
Outline: as §1

[6] = tested on: barnyardgrass (Echinochloa crus-galli)
Outline: as §1

[7] = tested on: dayflower, VA (Virginia dayflower, Commelina virginica)
Outline: as §1

[8] = tested on: velvetleaf (Abutilon theophrasti)
Outline: as §1

[9] = tested on: goosegrass (Eleusine indica)
Outline: as §1

[10] = tested on: horseweed (Conyza canadensis)
Outline: as §1

[11] = tested on: beggarticks (hairy beggarticks, Bidens pilosa)
Outline: as §1

[12] = tested on: surinam grass (Brachiaria decumbens)
Outline: as §1

[13] = tested on: foxtail, green (green foxtail, Setaria viridis)
Outline: as §1

[14] = tested on: ragweed (common ragweed, Ambrosia elatior)
Outline: as §1

[15] = tested on: arrowleaf Sida (Sida rhombifolia)
Outline: as §1

[16] = tested on: field bindweed (Convolvulus arvensis)
Outline: as §1

soybean (Glycine max) = tested on: soybean (Glycine max)
Outline: as §1

Kochia (Kochia scoparia) = tested on: Kochia (Kochia scoparia)
Outline: as §1

[17] = tested on: pigweed, palmer (palmer pigweed, Amaranthus palmeri)
Outline: as §1

[18] = tested on: foxtail, giant (giant foxtail, Setaria faberii)
Outline: as §1

CN1CC(c2cccc(C(F)(F)F)c2)C(C(=O)Nc2cccc(F)c2F)C1=O (stereo not shown) [Compound 636]
70: Plant response rating: Corn (corn (Zea mays); 62 g ai/ha) | Plant response rating: Field Bindweed ([16]; 250 g ai/ha)
60: Plant response rating: Nutsedge, Yellow ([1]; 250 g ai/ha) | Plant response rating: Velvetleaf ([8]; 125 g ai/ha)
20: Plant response rating: Velvetleaf ([8]; 31 g ai/ha)
35: Plant response rating: Dayflower, VA ([7]; 125 g ai/ha) | Plant response rating: Velvetleaf ([8]; 62 g ai/ha) | Plant response rating: Arrowleaf Sida ([15]; 31 g ai/ha)
65: Plant response rating: Corn (corn (Zea mays); 31 g ai/ha) | Plant response rating: Ryegrass, Italian ([4]; 62 g ai/ha) | Plant response rating: Dayflower, VA ([7]; 250 g ai/ha) | Plant response rating: Arrowleaf Sida ([15]; 62 g ai/ha)
85: Plant response rating: Kochia (Kochia (Kochia scoparia); 31 g ai/ha)
98: Plant response rating: Crabgrass, Brazil ([5]; 125 g ai/ha) | Plant response rating: Crabgrass, Brazil ([5]; 250 g ai/ha) | Plant response rating: Barnyardgrass ([6]; 125 g ai/ha) | Plant response rating: Barnyardgrass ([6]; 250 g ai/ha) | Plant response rating: Foxtail, Green ([13]; 250 g ai/ha)
95: Plant response rating: Ryegrass, Italian ([4]; 125 g ai/ha) | Plant response rating: Ryegrass, Italian ([4]; 250 g ai/ha) | Plant response rating: Crabgrass, Brazil ([5]; 31 g ai/ha) | Plant response rating: Crabgrass, Brazil ([5]; 62 g ai/ha) | Plant response rating: Barnyardgrass ([6]; 31 g ai/ha) | Plant response rating: Barnyardgrass ([6]; 62 g ai/ha) | Plant response rating: Goosegrass ([9]; 250 g ai/ha) | Plant response rating: Horseweed ([10]; 125 g ai/ha) | Plant response rating: Horseweed ([10]; 250 g ai/ha) | Plant response rating: Surinam Grass ([12]; 125 g ai/ha) | Plant response rating: Surinam Grass ([12]; 250 g ai/ha) | Plant response rating: Foxtail, Green ([13]; 31 g ai/ha) | Plant response rating: Foxtail, Green ([13]; 62 g ai/ha) | Plant response rating: Foxtail, Green ([13]; 125 g ai/ha) | Plant response rating: Kochia (Kochia (Kochia scoparia); 250 g ai/ha) | Plant response rating: Foxtail, Giant ([18]; 31 g ai/ha) | Plant response rating: Foxtail, Giant ([18]; 62 g ai/ha) | Plant response rating: Foxtail, Giant ([18]; 125 g ai/ha) | Plant response rating: Foxtail, Giant ([18]; 250 g ai/ha)
0: Plant response rating: Nutsedge, Yellow ([1]; 31 g ai/ha) | Plant response rating: Nutsedge, Yellow ([1]; 62 g ai/ha) | Plant response rating: Nutsedge, Yellow ([1]; 125 g ai/ha) | Plant response rating: Morningglory ([2]; 31 g ai/ha) | Plant response rating: Morningglory ([2]; 62 g ai/ha) | Plant response rating: Morningglory ([2]; 125 g ai/ha) | Plant response rating: Morningglory ([2]; 250 g ai/ha) | Plant response rating: Dayflower, VA ([7]; 31 g ai/ha) | Plant response rating: Dayflower, VA ([7]; 62 g ai/ha) | Plant response rating: Horseweed ([10]; 31 g ai/ha) | Plant response rating: Beggarticks ([11]; 31 g ai/ha) | Plant response rating: Beggarticks ([11]; 62 g ai/ha) | Plant response rating: Beggarticks ([11]; 125 g ai/ha) | Plant response rating: Beggarticks ([11]; 250 g ai/ha) | Plant response rating: Ragweed ([14]; 31 g ai/ha) | Plant response rating: Ragweed ([14]; 250 g ai/ha) | Plant response rating: Field Bindweed ([16]; 31 g ai/ha) | Plant response rating: Soybean (soybean (Glycine max); 31 g ai/ha) | Plant response rating: Soybean (soybean (Glycine max); 62 g ai/ha) | Plant response rating: Soybean (soybean (Glycine max); 125 g ai/ha) | Plant response rating: Soybean (soybean (Glycine max); 250 g ai/ha) | Plant response rating: Pigweed, Palmer ([17]; 31 g ai/ha)
100: Plant response rating: Panicum, Fall ([3]; 125 g ai/ha)
40: Plant response rating: Ryegrass, Italian ([4]; 31 g ai/ha) | Plant response rating: Velvetleaf ([8]; 250 g ai/ha) | Plant response rating: Surinam Grass ([12]; 31 g ai/ha)
90: Plant response rating: Panicum, Fall ([3]; 31 g ai/ha) | Plant response rating: Panicum, Fall ([3]; 62 g ai/ha) | Plant response rating: Panicum, Fall ([3]; 250 g ai/ha) | Plant response rating: Goosegrass ([9]; 125 g ai/ha) | Plant response rating: Horseweed ([10]; 62 g ai/ha) | Plant response rating: Surinam Grass ([12]; 62 g ai/ha) | Plant response rating: Arrowleaf Sida ([15]; 250 g ai/ha) | Plant response rating: Kochia (Kochia (Kochia scoparia); 62 g ai/ha) | Plant response rating: Kochia (Kochia (Kochia scoparia); 125 g ai/ha) | Plant response rating: Pigweed, Palmer ([17]; 250 g ai/ha)
80: Plant response rating: Corn (corn (Zea mays); 125 g ai/ha) | Plant response rating: Corn (corn (Zea mays); 250 g ai/ha) | Plant response rating: Goosegrass ([9]; 62 g ai/ha) | Plant response rating: Arrowleaf Sida ([15]; 125 g ai/ha) | Plant response rating: Field Bindweed ([16]; 125 g ai/ha) | Plant response rating: Pigweed, Palmer ([17]; 125 g ai/ha)
75: Plant response rating: Field Bindweed ([16]; 62 g ai/ha)
10: Plant response rating: Pigweed, Palmer ([17]; 62 g ai/ha)
50: Plant response rating: Goosegrass ([9]; 31 g ai/ha)
